Measurements as given in article PMC12105704 (2025).

Assays:
[1] = test system: Ssa-PreQ1 RNA (RNA, riboswitch) AGAGGUUCCUAGCUGAUACCCUCUAUAAAAAACUA; test: photocrosslinking, streptavidin pull-down, PAGE; conditions: PreQ1 folding buffer: 100 mM KCl, 1 mM MgCl2; covalent; 50 µM RNA, 75 µM bio-CNV, 35 min; also pulled down from MCF7 total RNA
[2] = test system: Tte PreQ1 RNA (unlabeled) (RNA, riboswitch) CUGGGUCGCAGUAACCCCAGUUAACAAAACAAG; test: competition with CNV photocrosslinking, PAGE; conditions: PreQ1 folding buffer: 100 mM KCl, 1 mM MgCl2; PreQ1 0X-10X; dose-dependent inhibition of CNV crosslinking
[3] = test system: Ssa-PreQ1 RNA (RNA, riboswitch) AGAGGUUCCUAGCUGAUACCCUCUAUAAAAAACUA; test: competition with bio-CNV photocrosslinking, pull-down, RNAseq; conditions: PreQ1 folding buffer: 100 mM KCl, 1 mM MgCl2; 1 µM aptamer in MCF7 total RNA, 250 µM bio-CNV, 500 µM PreQ1; enrichment abolished
[4] = test system: Ssa-PreQ1 RNA (RNA, riboswitch) AGAGGUUCCUAGCUGAUACCCUCUAUAAAAAACUA; test: photocrosslinking, PAGE gel shift; conditions: PreQ1 folding buffer: 100 mM KCl, 1 mM MgCl2, covalent, 50 µM RNA, 75 µM compound, 365 nm 35 min
[5] = test system: Gth PreQ1 aptamer (RNA, riboswitch) AGAGGUUUCUAGCAAAACCCUCUAUAAAAAACUA; test: photocrosslinking, PAGE gel shift and MALDI-TOF; conditions: PreQ1 folding buffer: 100 mM KCl, 1 mM MgCl2; covalent; 50 µM RNA, 75 µM CNV, 365 nm 35 min, RT
[6] = test system: Bpu PreQ1 aptamer (RNA, riboswitch) AGAGGUUCUAGCAAAACCCUCUAUAAAAAACUAA; test: photocrosslinking, PAGE gel shift and MALDI-TOF; conditions: PreQ1 folding buffer: 100 mM KCl, 1 mM MgCl2; covalent; 50 µM RNA, 75 µM CNV, 365 nm 35 min, RT
[7] = test system: Bsu PreQ1 aptamer (RNA, riboswitch) AGAGGUUCUAGCUACACCCUCUAUAAAAAACUAA; test: photocrosslinking, PAGE gel shift and MALDI-TOF; conditions: PreQ1 folding buffer: 100 mM KCl, 1 mM MgCl2; covalent; 50 µM RNA, 75 µM CNV, 365 nm 35 min, RT
[8] = test system: Cy5-labelled Tte PreQ1 RNA (RNA, riboswitch) CUGGGUCGCAGUAACCCCAGUUAACAAAACAAG; test: microscale thermophoresis; conditions: 100 mM KCl, 1 mM MgCl2; 50 mM Tris pH 7.5, 5% DMSO, RT; irradiated 365 nm 35 min before MST, covalent, apparent
[9] = test system: Oih PreQ1 aptamer (RNA, riboswitch) AGAGGUUCUUAGCUUCAACCCUCUAUAAAAAACUAA; test: photocrosslinking, PAGE gel shift and MALDI-TOF; conditions: PreQ1 folding buffer: 100 mM KCl, 1 mM MgCl2; covalent; 50 µM RNA, 75 µM CNV, 365 nm 35 min, RT
[10] = test system: Tte PreQ1 RNA (unlabeled) (RNA, riboswitch) CUGGGUCGCAGUAACCCCAGUUAACAAAACAAG; test: photocrosslinking, denaturing PAGE and fluorescence; conditions: PreQ1 folding buffer: 100 mM KCl, 1 mM MgCl2; covalent; 50 µM RNA, 75 µM CNV, 365 nm; 15% crosslinked at 35 min

Compound: N#C/C=C/c1ccc2[nH]c3ccc(CCCOC(=O)CCCc4cn(CCOCCOCCOCCNC(=O)CCCC[C@@H]5SC[C@@H]6NC(=O)N[C@@H]65)nn4)cc3c2c1
- binding [1]: yes

Compound: NCc1c[nH]c2nc(N)[nH]c(=O)c12
- binding [2]: yes
- binding [3]: yes

Compound: N#C/C=C/c1ccc2[nH]c3cccnc3c2c1
- binding ([4]; minimal uncaging at 302 nm): yes

Compound: N#C/C=C/c1ccc2[nH]c3ccccc3c2c1
- binding [5]: yes
- binding [6]: yes
- binding [7]: yes
- KD [8]: 400 ± 200 nM
- binding [9]: yes
- binding ([4]; reversed at 302 nm): yes
- binding [10]: yes

Compound: N#C/C=C/c1ccc2[nH]c3ccncc3c2c1
- binding ([4]; minimal uncaging at 302 nm): yes
